Measured values published in US20050261164A1, “Remedy for urinary frequency and urinary incontinence” (FUJISAWA PHARMACEUTICAL CO., LTD., priority 2002, published 2005).
Structures can show the parent of a compound that is named as a salt.

Tested on: rhythmic bladder contraction, male SD rats
Assay: rhythmic bladder contraction model of a rat (frequent urination model)
Assay type: in vivo
Conditions: urethane-anesthetized male SD rats, intravenous, 0 to 10 minutes after the administration
Description: Male SD rats (7 to 10 weeks old, Japan SLC) were anesthetized with urethane (1 to 1.2 g/kg, intraperitoneal administration) and their lower abdomen were opened along the midline. After performing a small dissection at the apex of the bladder, a cannula (Hibiki, size 5) attached with a balloon of about 1 ml volume was inserted into the bladder. A cannula for drug administration (PE50, Becton Dickinson) was inserted into the femoral vein. The cannula for measuring intravesical pressure was connected to a pressure transducer attached with a three-way cock and water was injected into the balloon from a free opening of the three-way cock to cause rhythmic bladder contraction. The intravesical pressure at that time was recorded by a thermal recorder (Recti-Horiz8K, NEC Sanei) via an amplifier (AP-601G, Nihon Kohden). The bladder contractile frequency and force were measured every 10 minutes before the administration of a test compound and for 0 to 10 and 10 to 20 minutes after the administration. Statistical analysis was performed using randomized block analysis of variance and Dunnett's multiple comparison with respect to the measurement values obtained before the administration.

Compound | effect on bladder contractile force (1 mg/kg) | bladder contractile frequency, % of the value obtained before the administration (1 mg/kg, p<0.05) | effect on bladder contractile force (3.2 mg/kg) | bladder contractile frequency, % of the value obtained before the administration (3.2 mg/kg, p<0.01)
CN(C)CCNC(=O)c1cc(C(=O)N=C(N)N)cc(-c2cc(Cl)sc2Cl)c1 [test compound 2, [5-(2,5-dichlorothiophene-3-yl)-3-[(2-dimethylaminoethyl)carbamoyl]benzoyl]guanidine dihydrochloride] | without significantly affecting | 22% |  | 
(2,3-dihydro-9-methanesulfonyl-1-benzoxepin-4-carbonyl)guanidine dihydrochloride [test compound 3] | without significantly affecting | 41% |  | 
CC(C)c1ccc(C(=O)NC(=N)N)cc1S(C)(=O)=O.CS(=O)(=O)O [test compound 1, 4-isopropyl-3-methylsulfonylbenzoyl guanidine methanesulfonate] |  |  | without significantly affecting | 25%
